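Dose response: 5 concentrations. Exposure: 48 h. Format: 96-well plates. Endpoint: linear interpolation; highest concentration if not reached. The concentration for 50% growth inhibition is given as GI50. Definition used: TGI = concentration required for complete inhibition of growth.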
Columns and labels:
Test in all cases: inhibition of tumour cell growth, NCI panel, 48 h
OVCAR-3 ovarian = test system: OVCAR-3 ovarian
HOP-62 NSCLC = test system: HOP-62 NSCLC
SF-268 CNS = test system: SF-268 CNS
KM12 colon = test system: KM12 colon
SF-539 CNS = test system: SF-539 CNS
OVCAR-4 ovarian = test system: OVCAR-4 ovarian
SNB-19 CNS = test system: SNB-19 CNS
OVCAR-8 ovarian = test system: OVCAR-8 ovarian
SW-620 colon = test system: SW-620 colon
NCI-H460 lung = test system: NCI-H460 lung
MCF7 breast = test system: MCF7 breast
RXF 393 renal = test system: RXF 393 renal
RPMI-8226 leukemia = test system: RPMI-8226 leukemia
IGROV1 ovarian = test system: IGROV1 ovarian
A498 renal = test system: A498 renal
BT-549 breast = test system: BT-549 breast
786-0 renal = test system: 786-0 renal
MALME-3M melanoma = test system: MALME-3M melanoma
HCT-15 colon = test system: HCT-15 colon
ACHN renal = test system: ACHN renal
SR leukemia = test system: SR leukemia
HS 578T breast = test system: HS 578T breast
MDA-MB-231 breast = test system: MDA-MB-231 breast
CAKI-1 renal = test system: CAKI-1 renal
HOP-92 NSCLC = test system: HOP-92 NSCLC
TK-10 renal = test system: TK-10 renal
T-47D breast = test system: T-47D breast
HCT-116 colon = test system: HCT-116 colon
SK-MEL-28 melanoma = test system: SK-MEL-28 melanoma

O=C(c1ccccc1)N(C(=S)NCCc1ccc(Cl)cc1)c1ccc(Cl)cc1
TGI (OVCAR-3 ovarian): 13.3 µM | GI50 (HOP-62 NSCLC): 20.2 µM | TGI (HOP-62 NSCLC): 37.9 µM | GI50 (SF-268 CNS): 5.67 µM | TGI (SF-268 CNS): 18.4 µM | GI50 (KM12 colon): 4.24 µM | TGI (KM12 colon): 15.3 µM | GI50 (SF-539 CNS): 5.93 µM | TGI (SF-539 CNS): 19.1 µM | GI50 (OVCAR-4 ovarian): 13.7 µM | TGI (OVCAR-4 ovarian): 29.3 µM | GI50 (SNB-19 CNS): 15.9 µM | TGI (SNB-19 CNS): 30.1 µM | GI50 (OVCAR-8 ovarian): 19.1 µM | TGI (OVCAR-8 ovarian): 35.3 µM | GI50 (SW-620 colon): 4.49 µM | TGI (SW-620 colon): 16.7 µM | GI50 (NCI-H460 lung): 19.4 µM | TGI (NCI-H460 lung): 42.4 µM | GI50 (MCF7 breast): 3.58 µM | TGI (MCF7 breast): 19.4 µM | GI50 (RXF 393 renal): 12.8 µM | TGI (RXF 393 renal): 28.6 µM | GI50 (RPMI-8226 leukemia): 2.08 µM | TGI (RPMI-8226 leukemia): 5.66 µM | GI50 (IGROV1 ovarian): 3.88 µM | TGI (IGROV1 ovarian): 16.2 µM | GI50 (A498 renal): 16.3 µM | TGI (A498 renal): 30.7 µM | GI50 (BT-549 breast): 11.8 µM | TGI (BT-549 breast): 25.8 µM | GI50 (786-0 renal): 14.7 µM | TGI (786-0 renal): 28.6 µM | GI50 (MALME-3M melanoma): 11.8 µM | TGI (MALME-3M melanoma): 28.6 µM | GI50 (HCT-15 colon): 3.57 µM | TGI (HCT-15 colon): 14.4 µM | GI50 (ACHN renal): 5.68 µM | TGI (ACHN renal): 17.4 µM | GI50 (SR leukemia): 5.54 µM | TGI (SR leukemia): > 100 µM | GI50 (HS 578T breast): 13.8 µM | TGI (HS 578T breast): > 100 µM | GI50 (MDA-MB-231 breast): 6.95 µM | TGI (MDA-MB-231 breast): 20.4 µM | GI50 (CAKI-1 renal): 5.48 µM | TGI (CAKI-1 renal): 20.9 µM | GI50 (HOP-92 NSCLC): 7.3 µM | TGI (HOP-92 NSCLC): 21 µM | GI50 (TK-10 renal): 5.67 µM | TGI (TK-10 renal): 19.7 µM | GI50 (T-47D breast): 6.24 µM | TGI (T-47D breast): 25.3 µM | GI50 (HCT-116 colon): 7.11 µM | TGI (HCT-116 colon): 23.7 µM | GI50 (SK-MEL-28 melanoma): 12.7 µM | TGI (SK-MEL-28 melanoma): 27 µM
